In patent US20260373266A1, “PROTEIN DEGRADERS AND USES THEREOF” (KYMERA THERAPEUTICS, INC., priority 2022, published 2026):

Target: T1, DCAF1 WD40 domain (residues 1077-1390) (Homo sapiens, UniProt Q9Y4B6)
T1 construct: DCAF1 WD40 domain (residues 1077-1390)
Assay: DCAF1 binding assay by SPR (Biacore 8K+), DCAF1-3 KD
Settings: 25 °C, read-out: DCAF1-3 SPR (KD)

T1 sequence (Q9Y4B6 1077-1390): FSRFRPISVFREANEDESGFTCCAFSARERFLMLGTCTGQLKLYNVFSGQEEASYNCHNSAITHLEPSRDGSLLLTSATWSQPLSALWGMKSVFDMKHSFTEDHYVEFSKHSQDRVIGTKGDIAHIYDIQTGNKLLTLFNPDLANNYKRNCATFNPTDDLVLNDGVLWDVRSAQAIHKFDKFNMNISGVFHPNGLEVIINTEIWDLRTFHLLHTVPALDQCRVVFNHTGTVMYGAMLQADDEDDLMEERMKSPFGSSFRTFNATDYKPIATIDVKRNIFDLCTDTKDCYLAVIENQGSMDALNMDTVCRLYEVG

`CC1CCN(c2ccnc(N[C@@H]3CCCN(c4cccc(F)c4)C3)c2)CC1` [I-571] and `CCC1CCCN(c2ccnc(N[C@@H]3CCCN(c4cccc(F)c4)C3)c2)C1` (stereo partly shown) [I-572] fall in the same range of Kd: 10 to 100 µM for the first, 10 to 100 µM for the second.

`Fc1cccc(N2CCC[C@@H](Nc3cc(N4CCCC5(CC5)C4)ccn3)C2)c1` [I-573] and `Fc1cccc(N2CCC[C@@H](Nc3cc(N4CC5(CCC5)C4)ccn3)C2)c1` [I-577] fall in the same range of Kd: 10 to 100 µM for the first, 10 to 100 µM for the second.

First: Fc1cccc(N2CCC[C@@H](Nc3cc(N4CC5CC5C4)ccn3)C2)c1 (stereo partly shown) [I-574]
Second: Fc1cccc(N2CCC[C@@H](Nc3cc(N4CC5CCCC5C4)ccn3)C2)c1 (stereo partly shown) [I-575]
The Kd of the first is higher: 10 to 100 µM for the first, under 10 µM for the second.

`Fc1cccc(N2CCC[C@@H](Nc3cc(N4CC5CC(C5)C4)ccn3)C2)c1` [I-576] and `Fc1cccc(N2CCC[C@@H](Nc3cc(N4CC5CCC(CC5)C4)ccn3)C2)c1` [I-618] cannot be ordered by Kd: under 10 µM for the first, under 10 µM for the second.

Compared with `CN(c1ccnc(N[C@@H]2CCCN(c3cccc(F)c3)C2)c1)C1CCCCC1` [I-578], `Fc1cccc(N2CCC[C@@H](Nc3cc(N4CCCCCC4)ccn3)C2)c1` [I-597] is lower in Kd: 10 to 100 µM for the first, under 10 µM for the second.

First: Fc1cccc(N2CCC[C@H]3[C@@H]2CCN3c2cc(N3CCCCC3)ccn2)c1 [I-580]
Second: Fc1cccc(N2CCC[C@@H]3[C@H]2CCN3c2cc(N3CC4CC(C4)C3)ccn2)c1 [I-623]
The Kd of the first is higher: 100 to 200 µM for the first, under 10 µM for the second.

First: NC(=O)C[C@H](NC(=O)c1cn[nH]c1-c1ccccc1F)c1ccccc1Br [I-581]
Second: NC(=O)C[C@H](NC(=O)c1cn[nH]c1-c1ccccc1F)c1ccccc1F [I-602]
The Kd of the first is higher: 10 to 100 µM for the first, under 10 µM for the second. The second binds more tightly here.

`NC(=O)C[C@H](NC(=O)c1cn[nH]c1CC1CCCCC1)c1cccc(Cl)c1` [I-582] and `CC1=C(c2[nH]ncc2C(=O)N[C@@H](CC(N)=O)c2cccc(Cl)c2)CCCC1` [I-610] cannot be ordered by Kd: under 10 µM for the first, under 10 µM for the second.

Compared with `Cc1ccc(Cl)cc1[C@H](CC(N)=O)NC(=O)c1cn[nH]c1-c1ccccc1F` [I-583], `Cc1ccc(Cl)cc1[C@@H](CC(N)=O)NC(=O)c1cn[nH]c1-c1ccccc1F` [I-584] is higher in Kd: under 10 µM for the first, 10 to 100 µM for the second. The first binds more tightly here.

`Cc1[nH]cc(C(=O)N[C@@H](CC(N)=O)c2cccc(Cl)c2)c1-c1c(F)cccc1F` [I-585] and `NC(=O)C[C@H](NC(=O)c1c[nH]c(Nc2ccccc2)c1-c1c(F)cccc1F)c1cccc(Cl)c1` [I-629] cannot be ordered by Kd: under 10 µM for the first, under 10 µM for the second.

First: NC(=O)C[C@H](NC(=O)C1=C(c2c(F)cccc2F)CNC1)c1cccc(Cl)c1 [I-586]
Second: NC(=O)C[C@H](NC(=O)C1=C(c2c(F)cccc2F)CN(Cc2ccccc2)C1)c1cccc(Cl)c1 [I-587]
The Kd of the first is lower: under 10 µM for the first, 10 to 100 µM for the second.

First: NC(=O)C[C@H](NC(=O)c1ccc(N)nc1-c1ccccc1F)c1cccc(Cl)c1 [I-588]
Second: NC(=O)C[C@H](NC(=O)c1cnc(N)cc1-c1ccccc1F)c1cccc(Cl)c1 [I-589]
The Kd of the first is lower: 10 to 100 µM for the first, over 200 µM for the second. The first binds more tightly here.

`NC(=O)C[C@H](NC(=O)c1cn[nH]c1-c1c(F)cccc1C1CC1)c1cccc(Cl)c1` [I-590] and `C#Cc1cccc(F)c1-c1[nH]ncc1C(=O)N[C@@H](CC(N)=O)c1cccc(Cl)c1` [I-591] cannot be ordered by Kd: under 10 µM for the first, under 10 µM for the second.

`Cc1cccc(F)c1-c1c[nH]cc1C(=O)N[C@@H](CC(N)=O)c1cccc(Cl)c1` [I-592] and `Cc1cccc(C)c1-c1[nH]ncc1C(=O)N[C@@H](CC(N)=O)c1cccc(Cl)c1` [I-595] cannot be ordered by Kd: under 10 µM for the first, under 10 µM for the second.

Compared with `Oc1ccc(N2CCC[C@@H](Nc3cc(N4CCCCC4)ccn3)C2)cc1` [I-593], `O=C(c1cc(N2CCCCC2)ccn1)[C@@H]1CCCN(c2cccc(F)c2)C1` [I-612] is higher in Kd: under 10 µM for the first, over 200 µM for the second.

`NC(=O)C[C@H](NC(=O)c1c[nH]c(-c2ccccc2)c1-c1ccccc1F)c1cccc(Cl)c1` [I-594] and `NC(=O)C[C@H](NC(=O)c1c[nH]c(C(=O)c2ccccc2)c1-c1ccccc1F)c1cccc(Cl)c1` [I-603] cannot be ordered by Kd: under 10 µM for the first, under 10 µM for the second.

`COCCN(c1cc(N2CCCCC2)ccn1)[C@@H]1CCCN(c2cccc(F)c2)C1` [I-596] and `O=C(c1cc(N2CCCCC2)ccn1)[C@H]1CCCN(c2cccc(F)c2)C1` [I-613] fall in the same range of Kd: 10 to 100 µM for the first, 10 to 100 µM for the second.

`N#Cc1[nH]cc(C(=O)N[C@@H](CC(N)=O)c2cccc(Cl)c2)c1-c1ccccc1F` [I-598] and `NC(=O)C[C@H](NC(=O)c1c[nH]c(C(N)=O)c1-c1ccccc1F)c1cccc(Cl)c1` [I-599] cannot be ordered by Kd: under 10 µM for the first, under 10 µM for the second.

`NC(=O)C[C@H](NC(=O)c1c[nH]c(-c2ccc[nH]2)c1-c1ccccc1F)c1cccc(Cl)c1` [I-600] and `Cc1ccccc1C(=O)c1[nH]cc(C(=O)N[C@@H](CC(N)=O)c2cccc(Cl)c2)c1-c1c(C)cccc1F` [I-626] cannot be ordered by Kd: under 10 µM for the first, under 10 µM for the second.

`Cc1c(F)ccc(F)c1-c1[nH]ncc1C(=O)N[C@@H](CC(N)=O)c1cccc(Cl)c1` [I-601] and `NC(=O)C[C@H](NC(=O)c1cn[nH]c1-c1c(F)cccc1C(F)(F)F)c1cccc(Cl)c1` [I-630] cannot be ordered by Kd: under 10 µM for the first, under 10 µM for the second.

First: Fc1cccc(N2CCC[C@@H]3[C@H]2CCN3c2cc(N3CC4CCC(C4)C3)ccn2)c1 [I-604]
Second: Fc1cccc(N2CCC[C@H]3[C@@H]2CCN3c2cc(N3CC4CCC(C4)C3)ccn2)c1 [I-605]
The Kd of the first is lower: under 10 µM for the first, 10 to 100 µM for the second. The first binds more tightly here.

`Cc1cccc(F)c1-c1c(C(=O)N[C@@H](CC(N)=O)c2cccc(Cl)c2)c[nH]c1C(=O)C1CCCCC1` [I-606] and `Cc1ccc(C(=O)c2[nH]cc(C(=O)N[C@@H](CC(N)=O)c3cccc(Cl)c3)c2-c2c(C)cccc2F)cc1` [I-625] cannot be ordered by Kd: under 10 µM for the first, under 10 µM for the second.

First: NC(=O)CC1(NC(=O)c2cn[nH]c2-c2ccccc2F)CCc2ccc(Cl)cc21 (stereo not shown) [I-607]
Second: NC(=O)C[C@H](NC(=O)c1cn[nH]c1C(=O)c1ccccc1)c1cccc(Cl)c1 [I-619]
The Kd of the first is higher: 10 to 100 µM for the first, under 10 µM for the second.

`Fc1cccc(N2CCC[C@@H](Nc3cc(C4CCOCC4)[nH]n3)C2)c1` [I-608] and `Fc1cccc(N2CCC[C@@H](Nc3cc(C4=CCOCC4)[nH]n3)C2)c1` [I-609] cannot be ordered by Kd: over 200 µM for the first, over 200 µM for the second.

`CC1CC=C(c2[nH]ncc2C(=O)N[C@@H](CC(N)=O)c2cccc(Cl)c2)CC1` (stereo partly shown) [I-611] and `Cc1cccc(C(=O)c2[nH]cc(C(=O)N[C@@H](CC(N)=O)c3cccc(Cl)c3)c2-c2c(C)cccc2F)c1` [I-627] cannot be ordered by Kd: under 10 µM for the first, under 10 µM for the second.

Compared with `CN(c1ccccc1)c1ccnc(N[C@@H]2CCCN(c3cccc(F)c3)C2)c1` [I-614], `Fc1cccc(N2CCC[C@@H](Nc3cc(N4C5CCCC4C5)ccn3)C2)c1` [I-616] is lower in Kd: 10 to 100 µM for the first, under 10 µM for the second.

Compared with `COCCOCCOCCC(c1cc(N2CC3CCC(C3)C2)ccn1)[C@@H]1CCCN(c2cccc(F)c2)C1` (stereo partly shown) [I-615], `Fc1cccc(N2CCC[C@H]3[C@@H]2CCN3c2cc(N3CC4CC(C4)C3)ccn2)c1` [I-624] is higher in Kd: under 10 µM for the first, over 200 µM for the second.

First: Fc1cccc(N2CCC[C@@H](Nc3cc(N4C5CCCC4CC5)ccn3)C2)c1 [I-617]
Second: C=CC(=O)NCCCN1CCN(c2ccnc(N[C@@H]3CCCN(c4cccc(F)c4)C3)c2)CC1 [I-621]
The Kd of the first is lower: under 10 µM for the first, 100 to 200 µM for the second. The first binds more tightly here.

First: Cc1cccc(F)c1-c1c(C(=O)N[C@@H](CC(N)=O)c2cccc(Cl)c2)c[nH]c1C(=O)Cc1ccccc1 [I-622]
Second: O=C(O)C1C(Nc2cc(N3CCOCC3)ccn2)CCCN1c1cccc(F)c1 (stereo not shown) [I-628]
The Kd of the first is lower: under 10 µM for the first, 10 to 100 µM for the second. The first binds more tightly here.

`Fc1cccc(N2CCC[C@@H](Cc3cc(N4CCOCC4)[nH]n3)C2)c1` [I-631] and `Fc1cccc(N2CCC[C@H](Cc3cc(N4CCOCC4)[nH]n3)C2)c1` [I-632] cannot be ordered by Kd: over 200 µM for the first, over 200 µM for the second.

Same assay, conditions: DCAF1-3 SPR (KD), 25 °C

Compound `Fc1cccc(N2CCC[C@@H]3[C@H]2CCN3c2cc(N3CCCCC3)ccn2)c1` [I-579, (3aR,7aR)-4-(3-fluorophenyl)-1-(4-(piperidin-1-yl)pyridin-2-yl)octahydro-1H-pyrrolo[3,2-b]pyridine] has a Kd of under 10 µM.
